Patent US7098340B2, “Benzyl sulfonamide derivatives” (Warner Lambert Company LLC, priority 2003, dated 2006)

Biological target: T1, androgen receptor (Homo sapiens, UniProt P10275)
T1 sequence (P10275 1-920 Q868H): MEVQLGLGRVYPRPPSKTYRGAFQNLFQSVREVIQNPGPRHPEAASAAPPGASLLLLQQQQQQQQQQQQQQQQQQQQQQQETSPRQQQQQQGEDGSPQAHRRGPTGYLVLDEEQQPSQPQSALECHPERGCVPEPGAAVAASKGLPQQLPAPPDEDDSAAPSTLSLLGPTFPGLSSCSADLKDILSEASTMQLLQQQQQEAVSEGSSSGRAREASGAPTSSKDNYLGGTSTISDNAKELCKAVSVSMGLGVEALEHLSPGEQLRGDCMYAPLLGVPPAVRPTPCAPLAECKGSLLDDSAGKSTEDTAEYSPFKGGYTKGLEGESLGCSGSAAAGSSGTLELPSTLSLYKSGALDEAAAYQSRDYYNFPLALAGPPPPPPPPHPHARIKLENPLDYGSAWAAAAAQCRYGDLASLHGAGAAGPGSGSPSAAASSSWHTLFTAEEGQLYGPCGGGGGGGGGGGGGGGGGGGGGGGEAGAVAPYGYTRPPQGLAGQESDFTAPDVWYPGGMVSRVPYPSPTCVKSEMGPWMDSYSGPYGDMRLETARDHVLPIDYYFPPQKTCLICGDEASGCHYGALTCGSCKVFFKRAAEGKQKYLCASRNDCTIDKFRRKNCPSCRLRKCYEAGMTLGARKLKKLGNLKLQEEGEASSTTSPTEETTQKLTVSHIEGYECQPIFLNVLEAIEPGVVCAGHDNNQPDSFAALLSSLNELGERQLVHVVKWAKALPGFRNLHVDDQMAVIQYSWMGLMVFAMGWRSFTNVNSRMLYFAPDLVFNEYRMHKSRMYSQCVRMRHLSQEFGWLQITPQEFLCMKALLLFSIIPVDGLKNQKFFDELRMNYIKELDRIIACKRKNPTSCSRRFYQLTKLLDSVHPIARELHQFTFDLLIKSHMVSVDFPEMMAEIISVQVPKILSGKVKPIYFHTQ
Experiment: AR Antagonist Cell Assay (MMTV-luciferase reporter, DHT-stimulated)
Assay type: cell-based
Conditions: MDA-MB453-MMTV clone 54-19 cells; antagonism of 100 pM DHT, 17 hr, luciferase readout
Protocol: The compounds ability to antagonize the effects of androgen on the androgen receptor were determined in the protocol described immediately below.
Experimental Procedure for AR Antagonist Cell Assay
Cell line: MDA-MB453-MMTV clone 54–19. This cell line is a stable transfected cell line with MDA-MB453 cell background (human breast tumor cell expressing high level of androgen receptor). A MMTV minimal promoter containing ARE was first cloned in front of a firefly luciferase reporter gene. Then the cascade was cloned into transfection vector pUV120puro. Electroporation method was used for transfecting MDA-MB-453 cell. Puromycin resistant stable cell line was selected.
Cell Culture Media and Reagents:
Culture medium: DMEM (high glucose, Gibco cat #: 11960-044), 10% FBS, and 1% L-glutamine
Plating medium: DMEM (phenol red free), 10% charcoal treated HyClone serum, 1% L-glutamine
Assay medium: DMEM (phenol red free), 1% charcoal treated HyClone serum, 1% L-glutamine, and 1% penicillin/streptomycin
3× luciferase buffer: 2% beta-mercaptoethanol, 0.6% ATP, 0.0135% luciferine in cell lysis buffer
• 1. Cells are maintained in culture medium, splitting cells when they reach 80–90% confluence • 2. To test compounds, 10,000 cells/well are plated to opaque 96 cell culture plate in 100 ul/well plating medium, culture for overnight at 37° C. in cell culture incubator • 3. Carefully remove plating medium, then add 80 ul/well of pre-warmed assay medium, add 10 ul/well testing compound (final concentration at 10 uM or 1 uM), incubate at 37° C. for 30 minutes • 4. Add 10 ul/well freshly prepared DHT (final concentration at 100 pM) to each well, incubate at 37° C. for 17 hr (overnight) • 5. Add 50 ul/well 3× luciferase buffer, incubate at room temperature for 5 minutes, then count on Luminometer.
The fold induction over background by 100 pM DHT in the absence of testing compounds is standardized as 100% and experimental result is expressed as percentage of inhibition by testing compounds.

Compound | IC50 [µM]
CCCCN(CC)S(=O)(=O)c1ccc(Cc2ccc3[nH]c(=O)cc(C(F)(F)F)c3c2)cc1 [Example 6] | > 10
O=c1cc(C(F)(F)F)c2cc(Cc3ccc(S(=O)(=O)N(CCO)Cc4ccccc4)cc3)ccc2[nH]1 [Example 9, N-Benzyl-N-(2-hydroxyethyl)-4-(2-oxo-4-trifluoromethyl-1,2-dihydroquinolin-6-ylmethyl)benzenesulfonamide] | > 10
CCCN(CC1CC1)S(=O)(=O)c1ccc(Cc2ccc3[nH]c(=O)cc(C(F)(F)F)c3c2)cc1 [Example 9A, N-Cyclopropylmethyl-4-(2-oxo-trifluoromethyl-1,2-dihydroquinolin-6-ylmethyl)-N-propylbenzenesulfonamide] | 6.29
CCCCN(C)S(=O)(=O)c1ccc(Cc2ccc3[nH]c(=O)cc(C(F)(F)F)c3c2)cc1 [Example 9B, N-Butyl-N-methyl-4-(2-oxo-4-trifluoromethyl-1,2-dihydroquinolin-6-ylmethyl)benzenesulfonamide] | > 10
CN(CCC#N)S(=O)(=O)c1ccc(Cc2ccc3[nH]c(=O)cc(C(F)(F)F)c3c2)cc1 [Example 10, N-(2-Cyanoethyl)-N-methyl-4-(2-oxo-4-trifluoromethyl-1,2-dihydroquinolin-6-ylmethyl)benzenesulfonamide] | > 10
O=c1cc(C(F)(F)F)c2cc(Cc3ccc(S(=O)(=O)N(Cc4ccccc4)Cc4ccccc4)cc3)ccc2[nH]1 [Example 11, N,N-Dibenzyl-4-(2-oxo-4-trifluoromethyl-1,2-dihydroquinolin-6-ylmethyl)benzenesulfonamide] | > 10
COCCN(CCOC)S(=O)(=O)c1ccc(Cc2ccc3[nH]c(=O)cc(C(F)(F)F)c3c2)cc1 [Example 12, N,N-Bis(2-methoxyethyl)-4-(2-oxo-4-trifluoromethyl-1,2-dihydroquinolin-6-ylmethyl)benzenesulfonamide] | > 10
CN(CCc1ccccn1)S(=O)(=O)c1ccc(Cc2ccc3[nH]c(=O)cc(C(F)(F)F)c3c2)cc1 [Example 13, N-Methyl-4-(2-oxo-4-trifluoromethyl-1,2-dihydroquinolin-6-ylmethyl)-N-(2-pyridin-2-ylethyl)benzenesulfonamide] | > 10
CCc1cccc(NS(=O)(=O)c2ccc(Cc3ccc4[nH]c(=O)cc(C(F)(F)F)c4c3)cc2)c1 [Example 17, N-(3-Ethylphenyl)-4-(2-oxo-4-trifluoromethyl-1,2-dihydroquinolin-6-ylmethyl)benzenesulfonamide] | > 10
O=c1cc(C(F)(F)F)c2cc(Cc3ccc(S(=O)(=O)Nc4ccc5ncccc5c4)cc3)ccc2[nH]1 [Example 19, 4-(2-Oxo-4-trifluoromethyl-1,2-dihydroquinolin-6-ylmethyl)-N-quinolin-6-ylbenzenesulfonamide] | > 10
O=c1cc(C(F)(F)F)c2cc(Cc3ccc(S(=O)(=O)Nc4ccc5c(c4)CCC5)cc3)ccc2[nH]1 [Example 20, N-Indan-5-yl-4-(2-oxo-4-trifluoromethyl-1,2-dihydroquinolin-6-ylmethyl)-benzenesulfonamide] | > 10
Cc1ccc(-c2ccccc2)cc1NS(=O)(=O)c1ccc(Cc2ccc3[nH]c(=O)cc(C(F)(F)F)c3c2)cc1 [Example 22, N-(4-Methylbiphenyl-3-yl)-4-(2-oxo-4-trifluoromethyl-1,2-dihydroquinolin-6-ylmethyl)-benzenesulfonamide] | > 10
O=c1cc(C(F)(F)F)c2cc(Cc3ccc(S(=O)(=O)Nc4cc5ccccc5cn4)cc3)ccc2[nH]1 [Example 27, N-Isoquinolin-3-yl-4-(2-oxo-4-trifluoromethyl-1,2-dihydroquinolin-6-ylmethyl)-benzenesulfonamide] | > 10

Next, values leading:

IC50 [µM] | Compound
> 10 | O=c1cc(C(F)(F)F)c2cc(Cc3ccc(S(=O)(=O)N[C@H]4[C@@H]5CC[C@@H](C5)[C@H]4CO)cc3)ccc2[nH]1 (stereo in doubt) [Example 88, N-(3-Hydroxymethyl-bicyclo[2.2.1]hept-2-yl)-4-(2-oxo-4-trifluoromethyl-1,2-dihydroquinolin-6-ylmethyl)-benzenesulfonamide]
5.77 | O=c1cc(C(F)(F)F)c2cc(Cc3ccc(S(=O)(=O)NCC4CCCC[C@H]4O)cc3)ccc2o1 (stereo in doubt) [Example 177, N-(2-Hydroxycyclohexylmethyl)-4-(2-oxo-4-trifluoromethyl-2H-chromen-6-ylmethyl)benzenesulfonamide]
> 10 | O=c1cc(C(F)(F)F)c2cc(Cc3ccc(S(=O)(=O)N(CCO)C4CCCCC4)cc3)ccc2[nH]1 [Example 4, N-Cyclohexyl-N-(2-hydroxyethyl)-4-(2-oxo-4-trifluoromethyl-1,2-dihydroquinolin-6-ylmethyl)benzenesulfonamide]
> 10 | CCN(Cc1ccncc1)S(=O)(=O)c1ccc(Cc2ccc3[nH]c(=O)cc(C(F)(F)F)c3c2)cc1 [Example 5, N-Ethyl-4-(2-oxo-4-trifluoromethyl-1,2-dihydroquinolin-6-ylmethyl)-N-pyridin-4-ylmethylbenzenesulfonamide]
> 10 | CC(C)N(C)S(=O)(=O)c1ccc(Cc2ccc3[nH]c(=O)cc(C(F)(F)F)c3c2)cc1 [Example 7, N-Isopropyl-N-methyl-4-(2-oxo-4-trifluoromethyl-1,2-dihydroquinolin-6-ylmethyl)benzenesulfonamide]
3.25 | CCCN(CCO)S(=O)(=O)c1ccc(Cc2ccc3[nH]c(=O)cc(C(F)(F)F)c3c2)cc1 [Example 8, N-(2-Hydroxyethyl)-4-(2-oxo-4-trifluoromethyl-1,2-dihydroquinolin-6-ylmethyl)-N-propylbenzenesulfonamide]
2.8 | C#Cc1ccc(NS(=O)(=O)c2ccc(Cc3ccc4[nH]c(=O)cc(C(F)(F)F)c4c3)cc2)cc1 [Example 15, N-(4-Ethynylphenyl)-4-(2-oxo-4-trifluoromethyl-1,2-dihydroquinolin-ylmethyl)benzenesulfonamide]
2.02 | N#Cc1cccc(NS(=O)(=O)c2ccc(Cc3ccc4[nH]c(=O)cc(C(F)(F)F)c4c3)cc2)c1 [Example 16, N-(3-Cyanophenyl)-4-(2-oxo-4-trifluoromethyl-1,2-dihydroquinolin-6-ylmethyl)-benzenesulfonamide]
3.16 | O=c1cc(C(F)(F)F)c2cc(Cc3ccc(S(=O)(=O)Nc4ccccc4Cl)cc3)ccc2[nH]1 [Example 18, N-(2-Chlorophenyl)-4-(2-oxo-4-triftuoromethyl-1,2-dihydroquinolin-6-ylmethyl)-benzenesulfonamide]
9.09 | CC(=O)c1cccc(NS(=O)(=O)c2ccc(Cc3ccc4[nH]c(=O)cc(C(F)(F)F)c4c3)cc2)c1 [Example 21, N-(3-Acetylphenyl)-4-(2-oxo-4-trifluoromethyl-1,2-dihydroquinolin-6-ylmethyl)benzenesulfonamide]
1.67 | CC(O)c1cccc(NS(=O)(=O)c2ccc(Cc3ccc4[nH]c(=O)cc(C(F)(F)F)c4c3)cc2)c1 (centres unmarked) [Example 23, N[-3-(1-Hydroxyethyl)phenyl]-4-(2-oxo-4-trifluoromethyl-1,2-dihydroquinolin-6-ylmethyl)-benzenesulfonamide]
1.12 | Cc1ccc(F)cc1NS(=O)(=O)c1ccc(Cc2ccc3[nH]c(=O)cc(C(F)(F)F)c3c2)cc1 [Example 25]
1.97 | O=c1cc(C(F)(F)F)c2cc(Cc3ccc(S(=O)(=O)Nc4ccc(Cl)cc4)cc3)ccc2[nH]1 [Example 26, N-(4-Chlorophenyl)-4-(2-oxo-4-trifluoromethyl-1,2-dihydroquinolin-6-ylmethyl)-benzenesulfonamide]
